This note sets out measurements from patent publication US8530513B1, “Pharmaceutical uses of diterpene excavatolide B from a coral or an analogue thereof” (National Sun Yat-Sen University, priority 2012, dated 2013).

Bounds are passed on as bounds.

For one test, the system named is iNOS. As to the kind of experiment: TPA-induced iNOS expression in mouse skin, immunohistochemical staining. To be noted: topical for 6 h after TPA, anti-iNOS immunostaining. The format is in vivo. As for the experimental part: Mice were treated or not treated topically on their shaven abdomens with acetone (vehicle only) or TPA (10 nmol in 200 μl acetone/site) for 6 h or treated first with TPA for 10 min, then with the indicated concentrations of BrD1 for 6 h. Mice were killed by cervical dislocation. Abdominal skin tissues were collected, fixed with formalin buffer and embedded in paraffin. Tissue sections ([…]) were cut and laid onto silanized glass slides and deparaffinized three times with xylene for 5 min each prior to rehydration using a graded alcohol bath. For hematoxyline and eosin staining, the sections were stained with hematoxyline and eosin staining. For immunohistochemical staining, the deparaffinized sections were boiled in 10 mM citrate buffer (pH 6.0) for 10 min for antigen retrieval and rinsed with PBS containing 0.05% Tween-20 buffer for 5 min. The sections were treated with 3% hydrogen peroxide in methanol for 15 min to decrease non-specific binding. They were subsequently washed with blocking solution (PBS containing 1% BSA) for 30 min and then PBST twice for 5 min. All slides were incubated first with 2% goat serum in blocking solution for 30 min, then with a 1:200 dilution of polyclonal iNOS antibody (eBioscience, San Diego, Calif.) at room temperature for 1 h. […] Subsequently, peroxidase-binding sites were determined by staining with 3,3′-diaminobenzidine tetrahydrochloride (Dako). […]

The next test has as its system MMP-9. Put plainly: TPA-induced MMP-9 protein expression in mouse skin, western blot. The format is in vivo. To be noted: for TPA-induced MMP-9 protein expression (in words): topical after TPA, 24 h, indicated concentrations. As for the experimental part: Shaven abdominal skins of female C57BL/6JNarl mice were not treated or topically treated with vehicle (acetone, 200 μl/site) or TPA (10 nmol in 200 μl acetone/site) at indicated time points or treated first with TPA for 10 min, then with the indicated concentrations of BrD1 at the indicated time points. Abdominal skin samples were collected, homogenated and lysed to prepare total proteins. Protein samples were subsequently resolved by SDS-PAGE using a gradient gel. The resolved proteins were transferred to a PVDF Immobilon-P membrane (Millipore, Bedford, Calif.), and the membrane was blocked with 5% non-fat dry milk in PBST buffer (phosphate-buffered saline (PBS) containing 0.1% Tween 20) for 60 minutes at room temperature. The membranes were incubated overnight at 4° C. with commercially available antibodies (1:1000 dilutions). Loading of equal amounts of protein was assessed using mouse β-actin. The blots were rinsed three times with PBST buffer for 5 minutes. Washed blots were incubated with HRP-conjugated secondary antibody (1:100,000 dilution), then washed again three times with PBST buffer. The transferred proteins were visualized with an enhanced chemiluminescence (ECL) detection kit (Amersham Pharmacia Biotech, Buckinghamshire, UK). Quantification of bands was performed using Image J software.
Matrix metalloproteinases (MMPs) play a crucial role in many physiological and pathological processes through remodeling extracellular matrix tissues (Stamenkovic I. J Pathol 2003, 200:448-464). Matrix metalloproteinase-9 (MMP-9), a gelatinase which has a key role in inflammatory response, is activated in skin during tissue injury (Shakarjian M P, Bhatt P, Gordon M K, Chang Y C, Casbohm S L, Rudge T L, Kiser R C, Sabourin C L, Casillas R P, Ohman-Strickland P, Riley D J, Gerecke D R. J Appl Toxicol 2006, 26:239-246). In order to evaluate the anti-inflammatory effect of BrD1 on MMP-9 activation in TPA-inflamed skin, BrD1 was topically applied after TPA treatment for 24 h. […] Inhibiton of TPA-inducedMMP-9 expression by BrD1 treatment could also be readily observed at the mRNA level.

For `CCCC(=O)O[C@H]1C/C(C)=C\[C@@H]2OC(=O)[C@]3(C)O[C@]23[C@@H](OC(C)=O)[C@H]2[C@@H](C)[C@@H](O)C[C@H](OC(C)=O)[C@]2(C)[C@H]1OC(C)=O` [BrD1, excavatolide B], the “TPA-induced iNOS expression” value was “markedly reduced the TPA-induced iNOS expression in the epidermal and dermal layers” in the test with iNOS; “markedly reduces the TPA-induced iNOS expression in the epidermal and dermal layers” in the test on iNOS (listed as excavatolide B). In the test on MMP-9 (1 mg/site/mouse topical, 24 h after TPA), the “inhibition of TPA-induced MMP-9 protein expression” value is listed as no more than 89%. Besides, the figures for the “TPA-induced MMP-9 protein expression (in words)” value in the test on MMP-9 and in the test with MMP-9 (listed as excavatolide B) were “significantly inhibited TPA-induced MMP-9 protein expression in a dose-dependent manner” and “significantly inhibits TPA-induced MMP-9 protein expression in a dose-dependent manner”, respectively.
